PubChem BioAssay AID179 (DTP/NCI, 2004)
Active and inactive are the calls of the source.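 Rule for the calls: active = compounds giving half or more protection of infected cells from virus-caused growth loss, again on retest; inactive = the rest.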 Where a SMILES comes first, the peptide text is derived from it. [ ]: non-standard residue; d: D form. The star is where a group is joined. AllylGly = C=CC[CH](N)C(=O)O; Boc = CC(C)(C)OC(=O)*; OtBu = CC(C)(C)O*

System: CEM cells HIV-1 protection, formazan growth assay
Experiment: NCI AIDS Antiviral Assay
Details: for IC50: measured here: growth of uninfected CEM cells
Procedure, shortened: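 Steps: treat uninfected and HIV-1-infected human CEM cells at five drug levels; quantify growth by soluble formazan; retest any compound reaching 50% protection; classify actives from the retest.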

| Structure (SMILES) | EC50 [µM] | IC50 [µM] | outcome |
| --- | --- | --- | --- |
| O=C(O)Cc1cc(=O)oc2cc(O)c(Cl)cc12 | > 708 | > 708 |  |
| CC(C)=CCC[C@@H](C)C1=C(O)C(c2c(I)c(=O)n(C)c(=O)n2C)=C(C)C(=O)C1=O | > 200 | 112 |  |
| COc1ccc(/C=C2/SC(c3c(O)ccc4ccccc34)N(NC(=O)CCCCCCCCC(=O)NN3C(=O)/C(=C\c4ccc(OC)c(OC)c4)SC3c3c(O)ccc4ccccc34)C2=O)cc1OC (centres undefined) | > 200 | 8.51 |  |
| Cc1ccc2ccc(-c3ccccc3)c3c2c1C(=O)c1ccccc1C3=O |  |  | inactive |
| N#CNC(=NCc1ccccc1)NCc1ccccc1 | 200 | 339 |  |
| C(=C/P(c1ccccc1)c1ccccc1)/P(c1ccccc1)c1ccccc1.C(=CP(c1ccccc1)c1ccccc1)P(c1ccccc1)c1ccccc1.[Pt] | > 3.63 | 2.63 |  |
| CC[C@@H]1C[C@H]2CC3c4[nH]c5ccc(O)cc5c4CCN(C2)C31 | > 372 | 93.3 |  |
| CCCCc1ccc(Nc2nc(Cl)c3ncn(COCCOC(C)=O)c3n2)cc1 | > 200 | 13.8 |  |
| CN(C)CCC(=O)c1ccccc1 |  |  | inactive |
| COC1/C=C\C=C(/C)C(=O)NC2=CC(=O)C(NCCCl)=C(CC(C)CC(OC)C(O)C(C)/C=C(/C)C1OC(N)=O)C2=O (centres undefined) |  |  | inactive |
| COC(=O)[C@@]1(O)CC(C)C=C1C=O (some centres undefined) | > 1350 | 28.8 |  |
| CN1CCN(c2cc3nsnc3c3nsnc23)CC1 | > 200 | > 200 |  |
| COc1ccc(N=Nc2ccc3oc(=O)c(C(=O)Nc4ccc(OC)cc4)cc3c2)cc1 | > 200 | 20 |  |
| CCOC(=S)/C=C/c1ccccc1 |  |  | inactive |
| CCCCCNC(=O)C(O)C(O)C(=O)NCCCCC (centres undefined) | > 126 | > 126 |  |
| COC(=O)c1ccccc1NC(=O)C(=O)Cc1nc2c3c(ccc2[nH]c1=O)C(=O)c1ccccc1C3=O | > 20.4 | > 20.4 |  |
| C[N+](C)=c1ccc2nc3c(ccc4ccccc43)oc-2c1 | > 60.3 | 8.32 |  |
| O=C1c2ccccc2C(=O)C2(C(c3ccccc3)c3ccccc3)N=NCC12 (centres undefined) | > 200 | 105 |  |
| Cc1nnn[n-]1.N.N.N.N.N.[Cl-].[Co+3] | > 832 | > 832 |  |
| C=CCC(NC(=O)C(CC(=O)OC(C)(C)C)NC(=O)OC(C)(C)C)C(=O)OC (centres undefined) (Boc-Asp(OtBu)-[AllylGly]-OMe; configuration not given here) | > 200 | 97.7 |  |
| CCCCCCCCCCCCCCC(C)CCC(=O)O (centres undefined) |  |  | inactive |
| CCOC(=O)C(NC(=O)c1ccccc1)(N1CCOCC1)C(F)(F)F (centres undefined) | > 200 | > 200 |  |

| Structure (SMILES) | EC50 [µM] | IC50 [µM] | outcome |
| --- | --- | --- | --- |
| O=C(/C=C\c1ccccc1-c1ccccc1)c1ccccc1 | > 200 | > 200 |  |
| COc1ccc(/C=C/C(=O)c2c(-c3ccccc3)nn(C)c(=O)c2N2CCOCC2)cc1 | > 44.7 | > 44.7 |  |
| C[C@@]1(O)C2C3CC4C5C3C1[C@](O)(C42)[C@H]5Br (some centres undefined) |  |  | inactive |
| O=c1ccc2cc3ccoc3c(OCCCCCCCCCCCCOc3c4occc4cc4ccc(=O)oc34)c2o1 | > 38.9 | > 38.9 |  |
| CN1c2ccccc2N(C(=O)c2ccc(Cl)cc2)C(CC(=O)O)c2cccn21 (centres undefined) | > 631 | 117 |  |
| CCN(CC)C(=O)N1CN(c2ccccc2)C2(CCN(CCCSc3ccc(F)cc3)CC2)C1=O | > 200 | 9.77 |  |
| CC(=O)/C(=C/c1cccc(Cl)c1)C(=O)c1ccccc1 | > 34.7 | 17 |  |
| O=C1c2cccc3cccc(c23)C(=O)N1c1ccc([N+](=O)[O-])cc1[N+](=O)[O-] | > 200 | 120 |  |
| O=c1[nH]c2nn(-c3ccccc3)cc2c(=O)n1OS(=O)(=O)c1ccccc1 | > 200 | > 200 |  |
| COc1cc(Br)c(C=Nc2cccc3cc(OC)c(OC)cc23)cc1OC | > 31.6 | > 31.6 |  |
| Nc1cccc(C#Cc2cccc(C#Cc3cccc(N)n3)n2)n1 | > 200 | 75.9 |  |
| Cc1n[nH]c(=O)n1N1C(=O)CCCC1=O | > 200 | > 200 |  |
| CN1[C@H]2C=CC(=O)[C@]1(Cl)[C@H]1C(=O)N(c3ccccc3)C(=O)[C@@H]21 | > 162 | 3.89 |  |
| O=C1OCC=C1COC1OC(CO)C(O)C(O)C1O (centres undefined) | > 200 | 77.6 |  |
| CC(=O)c1c(-c2ccco2)c(C#N)c(=S)n(C2OC(CO)C(O)C(O)C2O)c1-c1ccccc1 (centres undefined) | > 200 | 75.9 |  |
| O=C(O)/C=C/n1c2ccccc2c(=O)c2ccccc21 | > 70.8 | > 70.8 |  |
| CC(=O)Nc1ccc(-c2nnc(SCC(=O)Nc3ccc(C)cc3)o2)cc1 | > 67.6 | 11.7 |  |
| COc1cc(C)c(O)c(C[P+](c2ccccc2)(c2ccccc2)c2ccccc2)c1 | > 200 | 11.7 |  |
| CCOC(=O)C1(C(=O)OCC)NC(=O)CC1CC (centres undefined) |  |  | inactive |
| CC(C)=CCc1c(O)cc(O)c2c1O[C@H](c1cc3c(cc1O)O[C@@H](c1ccc(O)cc1)C3c1cc(O)cc(O)c1)CC2=O (some centres undefined) | > 77.6 | 36.3 |  |
| CCNc1nc2ccccc2nc1NCC | > 200 | > 200 |  |
